Source: patent publication US20110010780A1, “KCNN3 AS DIAGNOSTIC AND THERAPEUTIC TARGET FOR NEURODEGENERATIVE DISEASES” (EVOTEC NeuroSciences GmbH, priority 2005, published 2011)

Columns and labels:
SK-channels = conditions: all SK-channels, rather unspecifically; cited from earlier work
KCNN3 [1] = biological target: T1, KCNN3 (Homo sapiens, UniProt Q9UGI6, DUP76-80); test: cellular KCNN3 screening assay (membrane potential dye DiBAC4(3), ionomycin activation) in CHO/KCNN3 cells; type: cell-based; conditions: incubated 30 minutes before ionomycin (1 μM final), fluorescence over 5 minutes
T1 construct: expressed in transfected cells
Procedure: Upon entry of calcium into the cells the potassium channel is activated and thus impacts on the resting membrane potential of the cells which is mirrored by the fluorescent dye. The minimum fluorescence values measured during the following 5 minutes period were subtracted from the maximum signal recorded at the beginning of the experiment and plotted against the concentration of the substances incubated with the cells. The values obtained in the absence and at the lowest concentrations are indicative of a fully active potassium channel which leads to a hyperpolarization of the membrane potential.
(§1) The minimum fluorescence values during the following 5 minutes measurement period were subtracted from the maximum signal recorded at the beginning of the experiment and plotted against the concentration of the substances.
The assay makes use of membrane potential sensitive, fluorescent dyes and the activation of the calcium-sensitive KCNN3-potassium channel by the addition of ionomycin. Upon entry of calcium into the cells KCNN3 is activated and thus impacts on the resting membrane potential of the cells which is mirrored by the fluorescent dye. […] After 30 min of cell loading with the dye at 37° C. fluorescence (excitation 488 nm, emission 538 nm) is read by using a fluorescence plate reader (Flex-station, Molecular Devices). […] Fluorescence is monitored for a period of 5 min.

[2] = tested on: CHO wild type cells (CHO/−); test: cellular membrane potential assay in CHO wild type cells (control cell line); type: cell-based
Procedure: as §1
The assay makes use of membrane potential sensitive, fluorescent dyes and the activation of the calcium-sensitive KCNN3-potassium channel by the addition of ionomycin. Upon entry of calcium into the cells KCNN3 is activated and thus impacts on the resting membrane potential of the cells which is mirrored by the fluorescent dye. In more detail: CHO cells expressing KCNN3 are cultured on black 384-well plates with clear bottom at a density of 1.5.104 for 24 hours in a humidified incubator at 37° C. The cell culture medium is replaced with assay buffer (1 mM KCl, 2.3 mM CaCl2, 5 mM NaHCO3, 1 mM MgCl2, 154 mM NaCl, 5.5 mM d(+)-glucose, 5 mM HEPES, pH 7.4) containing 5 μM DiBAC4(3). After 30 min of cell loading with the dye at 37° C. fluorescence (excitation 488 nm, emission 538 nm) is read by using a fluorescence plate reader (Flex-station, Molecular Devices). Activation of KCNN3 is achieved by the addition of ionomycin at a 1μM final concentration (FIGS. 14 and 15). […] Fluorescence is monitored for a period of 5 min.

KCNN3 [3] = biological target: T1, KCNN3; test: Z′-value assessment of the cellular KCNN3 screening assay with fluoxetine; type: cell-based; conditions: CHO-KCNN3 cells, 100 μM fluoxetine, ionomycin 500 nM
Procedure: The difference of the fluorescence intensity before addition of ionomycin and after the 120 seconds incubation period was determined where the cells were incubated with fluoxetine. The influx of calcium mediated by ionomycin leads to an opening of the channels and a subsequent hyperpolarization of the resting membrane potential of the cells. […] The mean value of the difference of the fluorescence in presence of ionomycin and fluoxetine in the above experiment is 15912 rfu (standard deviation 3636 rfu) and the mean value of the fluorescence of cells in presence of ionomycin only is 124086 rfu (standard deviation 12615 rfu). The Z′-value is calculated to be 0.55. The Z′ in a second series of experiments was determined to be 0.59.
In order to optimize the KCNN3 assay for screening purposes the Z′-value was assessed (FIG. 16). After 24 hours of incubation the medium was removed from a 384-well plate where CHO-KCNN3 cells were grown. 20 μl dye solution in assay buffer was pipetted onto the cells and afterwards another 20 μl assay buffer only or 20 μl assay buffer plus 100 μM fluoxetine was added. After 30 minutes of incubation at 37 ° C. the plate was transferred to the automated pipetting device/fluorescence reader (FlexStation, Molecular Devices) and 10 μl ionomycin was added at a final concentration of 500 nM. Fluorescence was then measured for 120 sec every 10 sec. […]

CC[N+](CC)(CC)CCOc1cccc(OCC[N+](CC)(CC)CC)c1OCC[N+](CC)(CC)CC [gallamine]
block of SK-channels, potency (SK-channels): lesser potency compared to the toxins

CN1CCN(CCCN2c3ccccc3Sc3ccc(C(F)(F)F)cc32)CC1 [trifluorperatine]
IC50 (KCNN3 [1]): 18 µM

c1cc2cc(c1)C[n+]1ccc(c3ccccc31)NCc1ccc(cc1)CNc1cc[n+](c3ccccc13)C2 [UCL-1684]
block of SK-channels, potency (SK-channels): lesser potency compared to the toxins

C[C@H](CCC(=O)O)C[C@H](C)C[C@H](C)C(=O)/C=C(\O)[C@H](C)C[C@H](C)C/C=C/[C@@H](C)[C@@H](O)[C@@H](C)[C@@H](O)C[C@@H]1CC[C@@](C)([C@H]2CC[C@@](C)([C@@H](C)O)O2)O1 [ionomycin]
effect on fluorescence (membrane potential) in CHO wild type cells [2]: no effect

CNCCC(Oc1ccc(C(F)(F)F)cc1)c1ccccc1 (stereo not shown) [fluoxetine]
mean value of the difference of the fluorescence before addition of ionomycin and after 120 seconds (KCNN3 [3]; 30 minutes, standard deviation 3636 rfu): 15912 rfu
block of the KCNN3 ion channel (KCNN3 [3]): the ion channel is blocked

COc1cc2c3cc1Oc1cc(ccc1O)C[C@@H]1c4c(cc(OC)c(O)c4Oc4ccc(cc4)C[C@@H]3N(C)CC2)CC[N+]1(C)C [tubocurarine]
block of SK-channels, potency (SK-channels): lesser potency compared to the toxins
